# Source: patent US11931431B2, “PSMA-targeted radiopharmaceutical for diagnosing and treating prostate cancer” (FUTURECHEM CO., LTD, priority 2018, dated 2024)
# Entries after “also recorded” stand apart in the source; their conditions may differ. Where two headings read alike, the source gives them in different places.
# Columns and labels:
# [1] = molecular target: PSMA (Homo sapiens, UniProt Q04609); test: Measurement of binding capacity: competition with [^125I]30 on 22RV1 cells; set-up: host or cells: 22RV1 human prostate cancer cells
# PSMA, sequence (Q04609 whole entry): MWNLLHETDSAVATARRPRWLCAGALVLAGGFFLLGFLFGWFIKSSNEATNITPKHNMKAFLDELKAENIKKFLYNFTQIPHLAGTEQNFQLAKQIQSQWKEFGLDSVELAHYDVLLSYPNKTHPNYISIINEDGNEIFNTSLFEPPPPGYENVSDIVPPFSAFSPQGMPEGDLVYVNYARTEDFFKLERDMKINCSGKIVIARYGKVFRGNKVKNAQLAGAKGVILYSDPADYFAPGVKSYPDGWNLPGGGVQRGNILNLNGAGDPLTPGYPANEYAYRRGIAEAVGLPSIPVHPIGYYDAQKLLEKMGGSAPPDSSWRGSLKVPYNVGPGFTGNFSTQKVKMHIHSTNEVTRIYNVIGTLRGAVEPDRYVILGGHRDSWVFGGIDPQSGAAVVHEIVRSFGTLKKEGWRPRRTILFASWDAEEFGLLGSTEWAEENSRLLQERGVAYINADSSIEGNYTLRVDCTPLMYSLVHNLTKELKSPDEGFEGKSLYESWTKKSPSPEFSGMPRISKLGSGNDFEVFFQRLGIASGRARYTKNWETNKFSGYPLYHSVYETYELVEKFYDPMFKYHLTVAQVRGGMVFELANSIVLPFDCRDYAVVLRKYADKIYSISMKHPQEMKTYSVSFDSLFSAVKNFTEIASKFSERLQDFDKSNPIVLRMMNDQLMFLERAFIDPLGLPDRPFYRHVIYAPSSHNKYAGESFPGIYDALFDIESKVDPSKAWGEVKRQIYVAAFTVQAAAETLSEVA
# Experimental: To confirm the binding capacity of the compounds of the present invention to PSMA, the following experiment was performed.
# RPMI1640 supplemented with 1% BSA (bovine serum albumin) was used as a buffer solution.
# [^125I]30 (0.1 nM) obtained in Comparative Example 1 was added to a vessel containing 22RV1 cells (5×10^4), to which the compound represented by formula 1 was loaded at 9 concentrations (1.00×10^−4˜1.00×10^−12 M), followed by stirring at 37° C. for 2 hours. Upon completion of the stirring, the vessel was washed with PBS solution (2 mL) three times, and then the radioactivity was measured using a gamma counter (2480 WIZARD2 Gamma Counter PerkinElmer Co., MA). The 50% inhibition concentration (IC50) for each compound was calculated using a GraphPad Prism program (GraphPad Software, Inc., CA)
# (Maresca, K. P. et al., 2009, J. Med. Chem. 52, 347-357)
# [2] = tested on: PSMA^+ PC-3 PIP tumors; test: MicroPET/CT imaging of mice transplanted with prostate cancer cell lines; format: in vivo, nude mouse
# Experimental: A tumor model was prepared by subcutaneously injecting PSMA^+ PC-3 PIP cells (a human prostate cancer cell line) to the right side of the nude mouse hind leg. Each of the ^68Ga-labeled compounds [^68Ga]1e, [^68Ga]1g, [^68Ga]1h and [^68Ga]1k was intravenously injected with 5.5 to 6.5 MBq (148-175 μCi/200 μL), and PET/CT images were obtained using small animal INVEON PET/CT (Siemens medical solutions, Knoxville, USA) for 60 minutes. After 150 minutes, 270 minutes, and 390 minutes, PET/CT images were also obtained for 30 minutes. The obtained PET/CT image results were quantitatively analyzed using Inveon™ Research Workplace (IRW).
# FIGS. 1, 2, 3, and 4 are graphs showing the quantitative analysis results of MicorPET/CT images for [^68Ga]1e, [^68Ga]1g, [^68Ga]1h, and [^68Ga]1k in % injected dose (ID)/g, and summarized in Tables 3, 4, 5, and 6, respectively.
# [3] = 22RV1 cells, [^125I]30 0.1 nM, 37° C., 2 hours, read-out: IC50
# [4] = 22RV1 cells, [^125I]30 0.1 nM, 37° C., 2 hours, read-out: Ki value
structure (smiles),measurement,setting,value
O=C(O)CC[C@H](NC(=O)N[C@@H](CCCCN(CC(=O)O)C(=O)COCCOCCNC(=O)[C@H](CCCCNC(=O)CCCc1ccccc1)NC(=O)CN1CCN2CCN3CCN(CC1)CC(=O)[O][Ga]([O]C(=O)C2)[O]C(=O)C3)C(=O)O)C(=O)O [Ga-1f],"binding force / binding capacity to PSMA, in words",[1]; 22RV1 cells,higher binding capacity than the compound Ga-1e
same,IC50,[1]; [3],25.7 ± 5.06 nM
same,Ki,[1]; [4],8.12 ± 1.6 nM
O=C(O)CCC(NC(=O)NC(CCCCN(CC(=O)O)C(=O)COCCOCCNC(=O)CN1CCN2CCN3CCN(CC1)CC(=O)[O][Ga]([O]C(=O)C2)[O]C(=O)C3)C(=O)O)C(=O)O (stereo not shown) [Ga-1e],IC50,[1]; [3],47.4 ± 1.78 nM
same,Ki,[1]; [4],12.9 ± 0.49 nM
O=C(O)CC[C@H](NC(=O)N[C@@H](CCCCN(CC(=O)O)C(=O)CCc1cn(CCOCCNC(=O)CN2CCN3CCN4CCN(CC2)CC(=O)[O][Ga]([O]C(=O)C3)[O]C(=O)C4)nn1)C(=O)O)C(=O)O [Ga-1c],IC50,[1]; [3],21.2 ± 2.06 nM
same,Ki,[1]; [4],3.76 ± 0.37 nM
O=C(O)CCC(NC(=O)NC(CCCCN(CC(=O)O)C(=O)COCCNC(=O)C(CCCCNC(=O)CCCc1ccc(I)cc1)NC(=O)CN1CCN2CCN3CCN(CC1)CC(=O)[O][68Ga]([O]C(=O)C2)[O]C(=O)C3)C(=O)O)C(=O)O (stereo not shown) [[^68Ga]1k],intake of mouse organ: Bladder,[2]; 10 min after injection,4.12 ± 0.45 % ID/g
same,intake of mouse organ: Heart,[2]; 10 min after injection,21.67 ± 0.44 % ID/g
same,intake of mouse organ: Kidney,[2]; 10 min after injection,11.16 ± 1.35 % ID/g
same,intake of mouse organ: Liver,[2]; 10 min after injection,11.99 ± 4.72 % ID/g
same,intake of mouse organ: Muscle,[2]; 10 min after injection,2.26 ± 0.75 % ID/g
same,intake of mouse organ: Tumor (PIP),[2]; 10 min after injection,1.85 ± 0.25 % ID/g
same,intake of mouse organ: Bladder,[2]; 20 min after injection,4.68 ± 0.22 % ID/g
same,intake of mouse organ: Heart,[2]; 20 min after injection,20.10 ± 0.29 % ID/g
same,intake of mouse organ: Kidney,[2]; 20 min after injection,11.21 ± 1.62 % ID/g
same,intake of mouse organ: Liver,[2]; 20 min after injection,11.09 ± 3.46 % ID/g
same,intake of mouse organ: Muscle,[2]; 20 min after injection,2.91 ± 1.21 % ID/g
same,intake of mouse organ: Tumor (PIP),[2]; 20 min after injection,3.22 ± 0.38 % ID/g
same,intake of mouse organ: Bladder,[2]; 30 min after injection,4.68 ± 0.45 % ID/g
same,intake of mouse organ: Heart,[2]; 30 min after injection,18.33 ± 0.13 % ID/g
same,intake of mouse organ: Kidney,[2]; 30 min after injection,10.89 ± 1.36 % ID/g
same,intake of mouse organ: Liver,[2]; 30 min after injection,10.04 ± 2.73 % ID/g
same,intake of mouse organ: Muscle,[2]; 30 min after injection,3.09 ± 0.91 % ID/g
same,intake of mouse organ: Tumor (PIP),[2]; 30 min after injection,3.94 ± 0.38 % ID/g
same,intake of mouse organ: Bladder,[2]; 40 min after injection,4.75 ± 0.21 % ID/g
same,intake of mouse organ: Heart,[2]; 40 min after injection,17.22 ± 0.35 % ID/g
same,intake of mouse organ: Kidney,[2]; 40 min after injection,11.06 ± 1.02 % ID/g
same,intake of mouse organ: Liver,[2]; 40 min after injection,9.31 ± 2.32 % ID/g
same,intake of mouse organ: Muscle,[2]; 40 min after injection,3.32 ± 1.20 % ID/g
same,intake of mouse organ: Tumor (PIP),[2]; 40 min after injection,4.40 ± 0.36 % ID/g
same,intake of mouse organ: Bladder,[2]; 50 min after injection,4.83 ± 0.18 % ID/g
same,intake of mouse organ: Heart,[2]; 50 min after injection,16.06 ± 0.38 % ID/g
same,intake of mouse organ: Kidney,[2]; 50 min after injection,10.80 ± 1.20 % ID/g
same,intake of mouse organ: Liver,[2]; 50 min after injection,8.73 ± 2.11 % ID/g
same,intake of mouse organ: Muscle,[2]; 50 min after injection,3.24 ± 1.07 % ID/g
same,intake of mouse organ: Tumor (PIP),[2]; 50 min after injection,5.03 ± 0.33 % ID/g
same,intake of mouse organ: Bladder,[2]; 60 min after injection,4.81 ± 0.24 % ID/g
same,intake of mouse organ: Heart,[2]; 60 min after injection,15.03 ± 0.27 % ID/g
same,intake of mouse organ: Kidney,[2]; 60 min after injection,10.96 ± 1.18 % ID/g
same,intake of mouse organ: Liver,[2]; 60 min after injection,8.22 ± 1.79 % ID/g
same,intake of mouse organ: Muscle,[2]; 60 min after injection,3.49 ± 1.28 % ID/g
same,intake of mouse organ: Tumor (PIP),[2]; 60 min after injection,5.45 ± 0.16 % ID/g
same,intake of mouse organ: Bladder,[2]; 150 min after injection,18.10 ± 6.51 % ID/g
same,intake of mouse organ: Heart,[2]; 150 min after injection,7.85 ± 1.63 % ID/g
same,intake of mouse organ: Kidney,[2]; 150 min after injection,11.40 ± 1.13 % ID/g
same,intake of mouse organ: Liver,[2]; 150 min after injection,5.00 ± 1.41 % ID/g
same,intake of mouse organ: Muscle,[2]; 150 min after injection,2.75 ± 1.20 % ID/g
same,intake of mouse organ: Tumor (PIP),[2]; 150 min after injection,11.00 ± 2.12 % ID/g
same,intake of mouse organ: Bladder,[2]; 270 min after injection,20.10 ± 4.53 % ID/g
same,intake of mouse organ: Heart,[2]; 270 min after injection,5.10 ± 0.85 % ID/g
same,intake of mouse organ: Kidney,[2]; 270 min after injection,9.25 ± 0.78 % ID/g
same,intake of mouse organ: Liver,[2]; 270 min after injection,3.60 ± 0.71 % ID/g
same,intake of mouse organ: Muscle,[2]; 270 min after injection,2.15 ± 0.78 % ID/g
same,intake of mouse organ: Tumor (PIP),[2]; 270 min after injection,15.70 ± 4.24 % ID/g
same,intake of mouse organ: Bladder,[2]; 390 min after injection,14.25 ± 0.64 % ID/g
same,intake of mouse organ: Heart,[2]; 390 min after injection,3.80 ± 1.41 % ID/g
same,intake of mouse organ: Kidney,[2]; 390 min after injection,7.70 ± 0.71 % ID/g
same,intake of mouse organ: Liver,[2]; 390 min after injection,2.25 ± 0.64 % ID/g
same,intake of mouse organ: Muscle,[2]; 390 min after injection,1.20 ± 0.56 % ID/g
same,intake of mouse organ: Tumor (PIP),[2]; 390 min after injection,18.25±4.17 % ID/g
same,"excretion, in words",[2]; MicroPET/CT,rapidly excreted out of the body
same,"residence time in the blood, in words",[2]; MicroPET/CT,residence time in the blood was increased
same,"tumor intake over time, in words",[2]; MicroPET/CT,tumor intake continued to increase after 390 minutes
O=C(O)CC[C@H](NC(=O)N[C@@H](CCCCN(CC(=O)O)C(=O)COCCNC(=O)CN1CCN2CCN3CCN(CC1)CC(=O)[O][Ga]([O]C(=O)C2)[O]C(=O)C3)C(=O)O)C(=O)O [Ga-1i],IC50,[1]; [3],69 ± 3.27 nM
same,Ki,[1]; [4],14.4 ± 0.68 nM
O=C(O)CC[C@H](NC(=O)N[C@@H](CCC(=O)N(CCOCCOCCNC(=O)CN1CCN2CCN3CCN(CC1)CC(=O)[O][Ga]([O]C(=O)C2)[O]C(=O)C3)CC(=O)O)C(=O)O)C(=O)O [Ga-1n],IC50,[1]; [3],174 ± 3.87 nM
same,Ki,[1]; [4],32.1 ± 0.71 nM
O=C(O)CC[C@H](NC(=O)N[C@@H](CCC(=O)N(CCOCCOCCNC(=O)CN1CCN2CCN3CCN(CC1)CC(=O)[O][Ga]([O]C(=O)C2)[O]C(=O)C3)CCC(=O)O)C(=O)O)C(=O)O [Ga-1o],IC50,[1]; [3],1140 ± 82.4 nM
same,Ki,[1]; [4],282 ± 20.4 nM
Cc1ccc(CCCC(=O)NCCCC[C@H](NC(=O)CN2CCN3CCN4CCN(CC2)CC(=O)[O][Ga]([O]C(=O)C3)[O]C(=O)C4)C(=O)NCCOCCOCC(=O)N(CCCC[C@H](NC(=O)N[C@@H](CCC(=O)O)C(=O)O)C(=O)O)CC(=O)O)cc1 [Ga-1g],"binding force / binding capacity to PSMA, in words",[1]; 22RV1 cells,higher binding capacity than the compound Ga-1e
same,IC50,[1]; [3],18.4 ± 0.35 nM
same,Ki,[1]; [4],5.82 ± 0.11 nM
O=C(O)CCC(NC(=O)NC(CCCCN(CC(=O)O)C(=O)COCCOCCNC(=O)C(CCCCNC(=O)CCCc1ccc(I)cc1)NC(=O)CN1CCN2CCN3CCN(CC1)CC(=O)[O][Ga]([O]C(=O)C2)[O]C(=O)C3)C(=O)O)C(=O)O (stereo not shown) [Ga-1h],IC50,[1],11 ± 0.35 nM
same,Ki,[1],3 ± 0.1 nM
same,"binding force / binding capacity to PSMA, in words",[1]; 22RV1 cells,higher binding capacity than the compound Ga-1e; also recorded: highest binding capacity
O=C(O)CC[C@H](NC(=O)N[C@@H](CCCCN(CC(=O)O)C(=O)COCCNC(=O)[C@H](CCCCNC(=O)CCCc1ccc(I)cc1)NC(=O)CN1CCN2CCN3CCN(CC1)CC(=O)[O][Ga]([O]C(=O)C2)[O]C(=O)C3)C(=O)O)C(=O)O [Ga-1k],IC50,[1]; [3],63.9 ± 6.09 nM
same,Ki,[1]; [4],12.7 ± 1.07 nM
O=C(O)CC[C@H](NC(=O)N[C@@H](CCCCN(CCC(=O)O)C(=O)CCc1cn(CCOCCNC(=O)CN2CCN3CCN4CCN(CC2)CC(=O)[O][Ga]([O]C(=O)C3)[O]C(=O)C4)nn1)C(=O)O)C(=O)O [Ga-1d],IC50,[1]; [3],75.3 ± 18.6 nM
same,Ki,[1]; [4],18.6 ± 4.6 nM
O=C(O)CC[C@H](NC(=O)N[C@@H](CCCCNC(=O)NCc1cn(CCOCCNC(=O)CN2CCN3CCN4CCN(CC2)CC(=O)[O][Ga]([O]C(=O)C3)[O]C(=O)C4)nn1)C(=O)O)C(=O)O [Ga-1a],"binding force / binding capacity to PSMA, in words",[1]; 22RV1 cells,relatively low binding force to PSMA
same,IC50,[1]; [3],571 ± 136 nM
same,Ki,[1]; [4],69.9 ± 29.8 nM
same,"binding force to PSMA, times higher than that of Ga-1a",[1]; compared with Ga-1a,about 18.6 times
O=C(O)CCC(NC(=O)NC(CCC(=O)N(CC(=O)O)Cc1cn(CCOCCNC(=O)CN2CCN3CCN4CCN(CC2)CC(=O)[O][Ga]([O]C(=O)C3)[O]C(=O)C4)nn1)C(=O)O)C(=O)O (stereo not shown) [Ga-1p],IC50,[1]; [3],703 ± 145 nM
same,Ki,[1]; [4],130 ± 26.6 nM
O=C(O)CC[C@H](NC(=O)N[C@@H](CCCCNC(=O)N(Cc1cn(CCOCCNC(=O)CN2CCN3CCN4CCN(CC2)CC(=O)[O][Ga]([O]C(=O)C3)[O]C(=O)C4)nn1)c1ccncc1)C(=O)O)C(=O)O [Ga-1b],IC50,[1]; [3],237 ± 47.1 nM
same,Ki,[1]; [4],18.7 ± 1.87 nM
